Results taken from the CheMixHub ionic liquid set.
± gives the uncertainty stated by the source.

Experiment: xn = mol fraction of the nth substance listed

CC[n+]1ccn(C)c1.COS(=O)(=O)[O-] + CS(C)=O
viscosity [mPa·s], 100 kPa
Conditions	298.15 K	303.15 K	308.15 K	313.15 K
x1 = 0.0164	4.16 ± 0.16	4.01 ± 0.15	3.89 ± 0.14	3.67 ± 0.13
x1 = 0.0398	7.35 ± 0.2	6.81 ± 0.19	6.27 ± 0.17	5.93 ± 0.16
x1 = 0.0602	9.97 ± 0.24	9.2 ± 0.22	8.55 ± 0.21	8.08 ± 0.2
x1 = 0.0941	14.18 ± 0.32	12.83 ± 0.29	12.06 ± 0.27	11.28 ± 0.25
x1 = 0.1236	17.62 ± 0.39	15.85 ± 0.35	14.5 ± 0.32	13.71 ± 0.3
x1 = 0.1519	20.91 ± 0.45	18.59 ± 0.4	16.92 ± 0.36	16.1 ± 0.35
x1 = 0.2143	27.4 ± 0.58	24.2 ± 0.51	21.94 ± 0.47	20.73 ± 0.44
x1 = 0.2927	34.95 ± 0.74	30.43 ± 0.64	27.28 ± 0.58	25.55 ± 0.54
x1 = 0.3737	41.96 ± 0.88	36.24 ± 0.76	32.09 ± 0.68	29.71 ± 0.62
x1 = 0.4429	47.4 ± 1	40.66 ± 0.86	35.66 ± 0.75	32.71 ± 0.69
x1 = 0.5298	53.6 ± 1.1	45.69 ± 0.96	39.54 ± 0.83	35.84 ± 0.75
x1 = 0.6072	58.8 ± 1.2	49.5 ± 1	42.55 ± 0.89	38.23 ± 0.8
x1 = 0.6927	64.3 ± 1.4	53.7 ± 1.1	45.77 ± 0.96	40.24 ± 0.85
x1 = 0.7486	67.7 ± 1.4	56.3 ± 1.2	47.7 ± 1	41.57 ± 0.87
x1 = 0.8263	72.7 ± 1.6	60 ± 1.3	50.3 ± 1	43.32 ± 0.91
x1 = 0.8944	77 ± 1.7	63.2 ± 1.3	52.7 ± 1.1	44.81 ± 0.94
x1 = 0.9396	80.1 ± 1.8	65.5 ± 1.4	54.3 ± 1.1	45.96 ± 0.97
x1 = 0.9755	82.5 ± 1.8	67.4 ± 1.4	55.7 ± 1.2	46.87 ± 0.99
x1 = 1	84.3 ± 1.9	68.7 ± 1.5	56.7 ± 1.2	47.6 ± 1

CCCC[n+]1ccn(C)c1.N#C[C-](C#N)C#N + O
viscosity [mPa·s], 101 kPa
Conditions	278.15 K	288.15 K	298.15 K	308.15 K	318.15 K	328.15 K	333.15 K	338.15 K	348.15 K	358.15 K
x2 = 0	76.6 ± 2	43.55 ± 0.74	27.32 ± 0.47	18.45 ± 0.32	13.21 ± 0.23	9.91 ± 0.18	–	7.71 ± 0.14	6.18 ± 0.11	5.08 ± 0.095
x2 = 0.01382	–	–	–	–	–	9.9 ± 0.13	8.72 ± 0.11	–	6.245 ± 0.079	–
x2 = 0.0458	67.8 ± 1.3	39.3 ± 0.66	25.05 ± 0.42	17.19 ± 0.29	12.48 ± 0.21	9.46 ± 0.16	–	7.43 ± 0.13	6.01 ± 0.11	4.966 ± 0.092
x2 = 0.1008	–	31.74 ± 0.52	20.8 ± 0.35	14.54 ± 0.24	10.68 ± 0.18	8.18 ± 0.14	–	6.47 ± 0.12	5.261 ± 0.095	4.375 ± 0.081
x2 = 0.175	47.79 ± 0.76	28.85 ± 0.47	19.03 ± 0.31	13.37 ± 0.22	9.89 ± 0.17	7.62 ± 0.13	–	6.06 ± 0.11	4.944 ± 0.088	4.125 ± 0.076
x2 = 0.2116	44.3 ± 0.7	26.98 ± 0.43	17.9 ± 0.29	12.67 ± 0.21	9.43 ± 0.16	7.3 ± 0.12	–	5.83 ± 0.1	4.783 ± 0.085	4.001 ± 0.073
x2 = 0.2885	37.68 ± 0.58	23.28 ± 0.36	15.62 ± 0.25	11.15 ± 0.18	8.36 ± 0.14	6.51 ± 0.11	–	5.232 ± 0.09	4.309 ± 0.076	3.618 ± 0.066
x2 = 0.4273	28.9 ± 0.43	18.24 ± 0.28	12.43 ± 0.19	8.99 ± 0.14	6.81 ± 0.11	5.351 ± 0.089	–	4.329 ± 0.074	3.586 ± 0.064	3.028 ± 0.056
x2 = 0.5034	25.05 ± 0.37	15.99 ± 0.24	11 ± 0.17	8.01 ± 0.13	6.106 ± 0.099	4.82 ± 0.08	–	3.916 ± 0.068	3.273 ± 0.058	2.748 ± 0.052
x2 = 0.5607	21.78 ± 0.32	14.03 ± 0.21	9.71 ± 0.15	7.1 ± 0.11	5.428 ± 0.088	4.295 ± 0.072	–	3.496 ± 0.061	2.912 ± 0.053	2.472 ± 0.047

CC[n+]1ccn(C)c1.COS(=O)(=O)[O-] + CCCO
viscosity [mPa·s], 101 kPa
Conditions	283.15 K	293.15 K	303.15 K	313.15 K	323.15 K
x1 = 0.0562	3.83 ± 0.07	3 ± 0.07	2.38 ± 0.07	1.93 ± 0.07	1.58 ± 0.07
x1 = 0.1123	5.02 ± 0.08	3.88 ± 0.07	3.06 ± 0.07	2.47 ± 0.07	2.02 ± 0.07
x1 = 0.2201	8.55 ± 0.1	6.43 ± 0.09	4.9 ± 0.08	3.82 ± 0.07	3.15 ± 0.07
x1 = 0.3272	12.73 ± 0.44	9.53 ± 0.1	7.27 ± 0.09	5.71 ± 0.08	4.62 ± 0.08
x1 = 0.4282	19.32 ± 0.46	14.17 ± 0.44	10.7 ± 0.44	8.3 ± 0.1	6.6 ± 0.09
x1 = 0.5272	29.1 ± 0.49	20.65 ± 0.46	15.24 ± 0.45	11.61 ± 0.44	9.06 ± 0.1
x1 = 0.6285	40.72 ± 0.55	27.29 ± 0.48	19.7 ± 0.46	14.77 ± 0.45	11.43 ± 0.44
x1 = 0.7255	56.5 ± 1.9	37.58 ± 0.53	27.45 ± 0.49	20.14 ± 0.46	15.3 ± 0.45
x1 = 0.8203	82.4 ± 2.3	52.7 ± 1.9	35.86 ± 0.53	26.65 ± 0.48	19.78 ± 0.46
x1 = 0.9091	104.9 ± 3.1	63.6 ± 2	42.77 ± 0.57	30.19 ± 0.5	22.2 ± 0.47
x1 = 0.954	127.2 ± 4.2	77 ± 2.2	50.3 ± 1.9	35.02 ± 0.53	25.63 ± 0.48
x1 = 1	141 ± 5	84.1 ± 2.4	57.9 ± 2	39.54 ± 0.55	28.33 ± 0.49

NCC(O)CN + CC[n+]1ccn(C)c1.[Cl-]
101 kPa, x2 = 0.667
Conditions	viscosity [mPa·s]
298.15 K	280 ± 14
303.15 K	200.3 ± 9.6
313.15 K	108.2 ± 4.8
323.15 K	58.3 ± 2.5
333.15 K	38.3 ± 1.6

CCCCCC[n+]1ccn(C)c1.[Br-] + C[NH2+]CCC=C1c2ccccc2CCc2ccccc21.[Cl-] + O
viscosity [mPa·s], 100 kPa
Conditions	288.15 K	298.15 K	308.15 K	318.15 K
x2 = 0, x1 = 0.0001802	1.159 ± 0.044	0.926 ± 0.043	0.762 ± 0.043	0.645 ± 0.042
x2 = 0, x1 = 0.0007203	1.165 ± 0.044	0.934 ± 0.043	0.77 ± 0.043	0.643 ± 0.042
x2 = 0, x1 = 0.00126	1.171 ± 0.044	0.942 ± 0.043	0.776 ± 0.043	0.66 ± 0.043

NCCO + CCCC[n+]1ccn(C)c1.O=[N+]([O-])[O-] + O
Conditions	viscosity [mPa·s]
313 K, 100 kPa, x2 = 0, x3 = 0.8878	1.963 ± 0.05
